The results in this text go back to PubChem BioAssay (NCI).

Molecules are shown by their SMILES. Several values for one entry are separate records, joined by “and”; a condition that tells them apart may be missing. Equal entries are not always repeated.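 All cell lines were grown in 96-well plates and treated with compound for 48 hours. Abbreviation: GI50, concentration required for 50% inhibition of growth. The concentration for full growth arrest is given as TGI.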

Holding throughout (assay): inhibition of tumour cell growth, NCI panel, 48 h
The test system of assay [1] is KM20L2 colon.
In assay [2] the test system is HOP-18 NSCLC.
Assay [3] has as its system XF 498 CNS.
In assay [4] the test system is MCF7 breast.
In assay [5] the test system is MDA-N.
In assay [6] the test system is PC-3 prostate.
The subject of assay [7] is BT-549 breast.
Assay [8] relates to NCI/ADR-RES ovarian.

As for `COC(=O)C(CC(=O)Nc1ccc(C)cc1)C(=O)C(=O)Nc1ccccc1C(C)C` (configuration not stated), the TGI in assay [1], in assay [2] and in assay [3] was > 100 µM in each case.

As to `CCOP(=O)(OCC)OC(C#N)c1ccc(-c2ccccc2)cc1` (configuration not stated), the TGI in assay [1] was > 100 µM; in assay [2], 98.2 µM; in assay [3], 50.1 µM.

As to `O=c1cccc(C2CC(CO)C3CCCCN3C2)[nH]1` (configuration not stated), the TGI in assay [4], in assay [5], in assay [6], in assay [7] and in assay [8] was > 100 µM throughout.

In the case of `C/C(=N\N(c1ccccc1)c1ccccc1)c1c(O)cc(C)oc1=O`, the TGI in assay [1] and in assay [2] was > 100 µM in each case.

As to `CN(C)CC1CCC/C1=N\O` (configuration not stated), the TGI in assay [1] and in assay [2] was > 100 µM each time.

As for `COc1ccc(-c2ccc(-c3ccc(C(=N)N)cn3)o2)cc1`, the GI50 in assay [4] was 3.17 µM; in assay [6] it was 4.18 µM; in assay [7], 10.7 µM; in assay [8], 14.1 µM. Further, the TGI was found to be 13.4 µM in assay [4], 18 µM in assay [6], 22.8 µM in assay [7] and 30.7 µM in assay [8].

As for `COc1cc2c(=O)n(CCN)c3c4cc5c(cc4ccc3c2cc1OC)OCO5`, the GI50 is 0.175 µM in assay [4], 0.591 µM in assay [6], 1.06 µM in assay [7] and 1.26 µM in assay [8]. Moreover, the TGI in assay [4] is 1.53 µM; in assay [6], 2.27 µM; in assay [7], 2.7 µM; in assay [8], 3.6 µM.

For the compound `CCOC(=O)c1cc(/C=C/C(C)=C/C(=O)OC)oc1C`, the TGI in assay [1] and in assay [3] was > 100 µM in each case.

Consider `CC1C(=O)OCC2=CCN3CCC(OC(=O)C(C)C1(C)O)C23` (configuration not stated), for which the TGI in assay [5], in assay [6], in assay [7] and in assay [8] was > 100 µM throughout.

As to `COc1cc(/C=C2\C(=O)Nc3ccc(N(C)C)cc32)cc(OC)c1OC`, the GI50 in assay [4] was 1.51 µM; in assay [6], 1.73 µM; in assay [7], 2.49 µM; in assay [8], 1.93 µM. Further, the TGI in assay [4] is > 100 µM; in assay [6] it was > 100 µM; in assay [7], 14.5 µM; in assay [8], 6.27 µM.

In the case of `COc1ccccc1/C=C/C(=O)c1ccccc1`, the GI50 in assay [4] is 1.56 µM; in assay [6], 5.65 µM; in assay [7] it was 10.2 µM; in assay [8] it was 5.75 µM. The TGI in assay [4] is 10.2 µM; in assay [6], 28 µM; in assay [7], 23.9 µM; in assay [8], > 38.2 µM.

Turning to `CN(C)CCCNC(=O)c1ccc2c(c1)oc1cc3ccccc3c(=O)n12`, the GI50 in assay [4] is 15 µM; in assay [6] it was 31.7 µM; in assay [7], 12.7 µM; in assay [8], > 50 µM. For the same compound, the TGI in assay [4] is 39.2 µM; in assay [6], > 50 µM; in assay [7], 26.5 µM; in assay [8] it was > 50 µM.

Consider `CCCOc1ccc2nc(NC(=O)OC)[nH]c2c1`, for which the GI50 in assay [4] is 0.239 µM; in assay [6], 0.269 µM; in assay [7], 1.06 µM; in assay [8] it was 0.244 µM. Besides, the TGI in assay [4], in assay [6], in assay [7] and in assay [8] was > 100 µM each time.

For `COc1ccc(Cn2c3c(cc(OS(=O)(=O)C(F)(F)F)c2=O)Cc2ccccc2-3)cc1`, the GI50 in assay [5] was 7.55 µM; in assay [6], 26.7 µM; in assay [7], 19.9 µM; in assay [8], 3.03 µM. The TGI was 50 µM and > 100 µM in assay [5]; > 100 µM in assay [6]; 50 µM and > 100 µM in assay [7]; 50 µM and > 100 µM in assay [8].

In the case of `CCN(CC)C(=S)Oc1cc2oc(=O)cc(C)c2cc1Cl`, the TGI in assay [4], in assay [5], in assay [6], in assay [7] and in assay [8] was > 100 µM in each case.

Turning to `Nc1ccc(C(=O)CC(N)C(=O)O)cc1O` (configuration not stated), the TGI in assay [4], in assay [5], in assay [6], in assay [7] and in assay [8] was > 100 µM in each case.

`CCOC(=O)/C=C1\CCCC12OCCO2`: the TGI in assay [1] and in assay [2] was > 100 µM throughout.

`COc1cc(-c2cn(-c3ccc(Cl)c(Cl)c3)c(=O)n2C(C)=O)cc(OC)c1OC`: the GI50 in assay [4] is 14.7 µM; in assay [6], 4.3 µM; in assay [7], 10.7 µM; in assay [8] it was 13.5 µM. Besides, the TGI in assay [4] was 37.7 µM; in assay [6], 17.8 µM; in assay [7], 22.7 µM; in assay [8] it was 31.7 µM.

Turning to `COc1ccc2c(c1)/C(=C\c1c(Cl)[nH]c3ccc(OC)cc13)C(=O)N2`, the GI50 in assay [4] is 44.9 µM; in assay [6], 48.9 µM; in assay [7] it was 28.8 µM; in assay [8] it was > 100 µM. Also, the TGI in assay [4], in assay [6], in assay [7] and in assay [8] was > 100 µM in each case.

Take `COc1ccc(Cn2cc3c(c2)-c2oncc2CC3)cc1`: the GI50 in assay [4] is 3.07 µM; in assay [6], 5.26 µM; in assay [7], 4.79 µM; in assay [8], 2.86 µM. In addition, the TGI in assay [4] is > 100 µM; in assay [6] it was 61.1 µM; in assay [7], 66.1 µM; in assay [8] it was 9.85 µM.

As to `NCCCCNc1ccc2c(=O)[nH][nH]c(=O)c2c1`, the TGI in assay [1] and in assay [2] was > 100 µM throughout.

In the case of `CCN(CC)C(=S)SC`, the TGI in assay [4], in assay [5], in assay [6], in assay [7] and in assay [8] was > 100 µM in each case.

As for `O=C(N/N=C(/CCN1CCCC1)CC(c1ccccc1)c1c(O)c2ccccc2oc1=O)c1ccncc1` (configuration not stated), the TGI in assay [1] and in assay [2] was > 100 µM throughout.
